Measured values taken from US8293729B2 (Boehringer Ingelheim International GmbH, priority 2009, dated 2012).

These compounds were tested against T1, human GPR119 receptor (Homo sapiens, UniProt Q8TDV5, S329A/T327A) (assay: cAMP assay (LANCE cAMP-384) in HEK293 cells stably expressing mutant human GPR119 receptor). Settings: EC50, cAMP accumulation, HEK293 cells stably expressing mutant human GPR119.
T1 construct: N-terminal leader […]; expressed in transfected cells
T1 sequence (Q8TDV5 with tags, fused parts or gaps T327A/S329A): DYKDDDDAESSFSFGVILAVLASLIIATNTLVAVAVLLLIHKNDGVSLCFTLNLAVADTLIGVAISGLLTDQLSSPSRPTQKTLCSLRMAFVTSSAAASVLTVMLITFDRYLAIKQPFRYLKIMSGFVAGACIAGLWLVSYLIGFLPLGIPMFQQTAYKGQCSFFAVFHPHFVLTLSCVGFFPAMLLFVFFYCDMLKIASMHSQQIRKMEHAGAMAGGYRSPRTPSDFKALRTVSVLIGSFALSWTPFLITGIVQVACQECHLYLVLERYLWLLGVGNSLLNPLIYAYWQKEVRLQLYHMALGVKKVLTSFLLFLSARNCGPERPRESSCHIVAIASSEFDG
Assay type: cell-based
Method in brief: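 Agonist EC50 came from nonlinear regression over 12 concentrations (30 μM–100 pM), with % stimulation at 10 μM where no EC50 was obtained. Cells: stable HEK293 with mutant human GPR119 (T327A/S329A), 20 min compound at 37° C; cAMP read by LANCE kit with standard curve.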

SMILES | EC50 [nM]
CNC(=O)c1cc(F)c(N2CCC(=NOC3CCN(C(=O)OC(C)C)CC3)CC2)cc1F [Example 2-35] | 34

Same assay, conditions: cAMP accumulation, HEK293 cells stably expressing mutant human GPR119; read-out: EC50

SMILES | EC50 [nM]
CC(C)OC(=O)N1CCC(ON=C2CCN(c3cc(F)c([C@@H](C)N)cc3F)CC2)CC1 [Example 8-1, 4-{1-[4-((R)-1-Amino-ethyl)-2,5-difluoro-phenyl]-piperidin-4-ylideneaminooxy}-piperidine-1-carboxylic acid isopropyl ester] | 538

Same assay, conditions: the 44th table, compounds 77-1 to 77-14; read-out: EC50

SMILES | EC50 [nM]
CCc1cnc(N2CCC(ON=C3CCN(c4cc(F)c(CC(N)=O)cc4F)CC3)CC2)nc1 [Example 77-4] | 32
CCc1cnc(N2CCC(ON=C3CCN(c4cc(F)c(CC(=O)N5CC[C@H](N(C)C)C5)cc4F)CC3)CC2)nc1 [Example 77-5] | 6
CCc1cnc(N2CCC(ON=C3CCN(c4cc(F)c(CC(=O)N5CC[C@@H](N(C)C)C5)cc4F)CC3)CC2)nc1 [Example 77-6] | 9
CCc1cnc(N2CCC(ON=C3CCN(c4cc(F)c(CC(=O)N5CCC[C@H](N)C5)cc4F)CC3)CC2)nc1 [Example 77-7] | 45
CCc1cnc(N2CCC(ON=C3CCN(c4cc(F)c(CC(=O)N5CCC[C@@H](N)C5)cc4F)CC3)CC2)nc1 [Example 77-8] | 30
CCc1cnc(N2CCC(ON=C3CCN(c4cc(F)c(CC(=O)N5CC[C@H](CN)C5)cc4F)CC3)CC2)nc1 [Example 77-9] | 8
CCc1cnc(N2CCC(ON=C3CCN(c4cc(F)c(CC(=O)NC5CCNCC5)cc4F)CC3)CC2)nc1 [Example 77-10] | 20
CCc1cnc(N2CCC(ON=C3CCN(c4cc(F)c(CC(=O)N5CC[C@@H](N)C5)cc4F)CC3)CC2)nc1 [Example 77-11] | 47
CCc1cnc(N2CCC(ON=C3CCN(c4cc(F)c(CC(=O)N5CC[C@H](N)C5)cc4F)CC3)CC2)nc1 [Example 77-12] | 19
CCc1cnc(N2CCC(ON=C3CCN(c4cc(F)c(CC(=O)N5CCNCC5)cc4F)CC3)CC2)nc1 [Example 77-13] | 39
CCc1cnc(N2CCC(ON=C3CCN(c4cc(F)c(CC(=O)N5CCC(CN(C)C)CC5)cc4F)CC3)CC2)nc1 [Example 77-14] | 6

The compounds below were run on male ZDF rats (assay: In vivo OGTT (oral glucose tolerance test) in Sprague Dawley or Zucker Diabetic Fatty rats). Settings: nine week old male ZDF rats, 30 mg/kg p.o. 30 minutes prior to glucose bolus, 2 hrs post glucose bolus.
Set-up: species or system rat
Protocol: Nine to 13 week old Male Sprague Dawley rats weighing 250 g-350 g or 9 week old male Zucker Diabetic Fatty rats weighing 300 g-450 g were fasted overnight for 16 hours. At time zero, blood was collected using the tail-nick method and glucose was measured with a glucometer (Bayer HealthCare) Animals then immediately received either vehicle (80% Labrasol, Gattefossé, France) or 3, 10, or 30 mg/kg GPR119 agonist (p.o., volume 2 mL/kg). Thirty minutes later blood glucose was again measured preceding the administration of a glucose bolus (p.o. 2 g/kg, volume 6 mL/kg). Blood glucose was then determined at 10, 20, 30, 60, 90, 120, and 180 minutes post glucose bolus or 20, 40, 60, 80, 100, and 120 minutes past glucose bolus.
Nine week old male ZDF rats were dosed with either 30 mg/kg of Compound 2-35 or 30 mg/kg of Compound 8-1 30 minutes prior to administration of the glucose bolus.

SMILES | reduction of glucose excursion compared to vehicle (glucose area under the curve) [%]
CNC(=O)c1cc(F)c(N2CCC(=NOC3CCN(C(=O)OC(C)C)CC3)CC2)cc1F [Example 2-35] | 75
CC(C)OC(=O)N1CCC(ON=C2CCN(c3cc(F)c([C@@H](C)N)cc3F)CC2)CC1 [Example 8-1, 4-{1-[4-((R)-1-Amino-ethyl)-2,5-difluoro-phenyl]-piperidin-4-ylideneaminooxy}-piperidine-1-carboxylic acid isopropyl ester] | 70
